Results: US5140014A (Abbott Laboratories, priority 1989, dated 1992)
In brackets after ≈: the same amount, converted by molar mass. Read-outs that look alike come from different tables or passages of the source.

Experiments:
Test in all cases: in vitro antibacterial activity, agar dilution method (MIC)
Type in all cases: cell-based
Acinetobacter Sp = settings: Acinetobacter, strain CMX 669; BHI agar, 20-24 hours; read-out: MIC
Method in brief: (§1)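 Agar dilution in BHI agar, usually 12 two-fold dilutions from a 2,000 ug/mL stock. About 10^4 organisms from overnight BHI broth cultures (diluted 1:100) were spotted and incubated at 35-37 °C for 20-24 h. MIC was the lowest concentration giving no growth, slight haze or sparse colonies versus growth control.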

Streptococcus Bovis = settings: Streptococcus equinus
Method in brief: as §1

Enterobacter Aerogenes = settings: Klebsiella aerogenes, ATCC13048, strain ATCC 13048; BHI agar, 20-24 hours; read-out: MIC
Method in brief: as §1

Streptococcus Pyogenes = settings: Streptococcus pyogenes, BHI agar, 20-24 hours, read-out: MIC
Method in brief: (§2)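 Agar dilution in Brain Heart Infusion agar, usually 12 two-fold dilutions from a 2,000 ug/mL stock. Overnight BHI broth cultures were diluted 1:100 (1:10 for slow growers such as Streptococcus), and ~10^4 organisms were spotted per plate. MIC read after 20-24 h at 35°-37° C as lowest concentration giving no growth, slight haze or sparse colonies versus growth control.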

Streptococcus Agalactiae = settings: Streptococcus agalactiae, strain CMX 508; BHI agar, 20-24 hours; read-out: MIC
Method in brief: as §1

Klebsiella Pneumoniae = settings: Klebsiella pneumoniae, ATCC8045, strain ATCC 8045; BHI agar, 20-24 hours; read-out: MIC
Method in brief: as §1

Providencia Stuartii = settings: Providencia stuartii; strain CMX 640; BHI agar, 20-24 hours; read-out: MIC
Method in brief: as §1

[1] = tested on: Staphylococcus Epidermidis; settings: Staphylococcus epidermidis, strain 3519; BHI agar, 20-24 hours; read-out: MIC
Method in brief: as §1

Staphylococcus Aureus = settings: Staphylococcus aureus, BHI agar, 20-24 hours, read-out: MIC
Method in brief: as §1

Micrococcus Luteus = settings: Micrococcus luteus, BHI agar, 20-24 hours, read-out: MIC
Method in brief: as §2

Pseudomonas Aeruginosa = settings: Pseudomonas aeruginosa, BHI agar, 20-24 hours, read-out: MIC
Method in brief: as §1

Haemophilus Influenzae = settings: Haemophilus influenzae, BHI agar, 20-24 hours
Method in brief: as §1

Enterococcus Faecium = settings: Enterococcus faecium, ATCC8043, strain ATCC 8043; BHI agar, 20-24 hours; read-out: MIC
Method in brief: as §1

Escherichia Coli = settings: Escherichia coli, BHI agar, 20-24 hours, read-out: MIC
Method in brief: (§3)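 Agar dilution on BHI agar, typically 12 two-fold dilutions prepared from a 2,000 ug/mL stock solution. Plates were spot-inoculated with about 10^4 organisms from overnight BHI broth cultures, then incubated 20-24 h at 35°-37° C. MIC was the lowest concentration giving no growth, a slight haze or sparse isolated colonies compared with the growth control.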

Pseudomonas Cepacia = settings: Burkholderia cepacia; strain 296I; BHI agar, 20-24 hours; read-out: MIC
Method in brief: as §3

Work on `CCC1OC(=O)CC(O)C(C)C(OC2OC(C)C(O)C(N(C)C)C2O)C(CC=O)CC(C)C(N(C)C)C=CC(C)=CC1COC(C)=O` (stereo not shown) [Example 4, [9R]-23-O-Acetyl-9-deoxo-9-N,N-dimethylamino-5-O-mycaminosyl-tylonide] yielded an MIC (Acinetobacter Sp) of 6.2 µg/mL (≈ 9.27 µM), an MIC (Streptococcus Bovis) of no more than 0.02 µg/mL and an MIC (Enterobacter Aerogenes) of 100 µg/mL (≈ 150 µM). It also gave an MIC (Streptococcus Pyogenes; strain 930 CONST) greater than 100 µg/mL, an MIC (Streptococcus Pyogenes; strain 2548 INDUC) of 0.78 µg/mL (≈ 1.17 µM) and an MIC (Streptococcus Pyogenes; strain EES61) of 0.1 µg/mL (≈ 0.15 µM). The MIC (Streptococcus Agalactiae) was 0.1 µg/mL (≈ 0.15 µM), the MIC (Klebsiella Pneumoniae) was 50 µg/mL (≈ 74.8 µM) and the MIC (Providencia Stuartii) was greater than 100 µg/mL. The MIC [1] was 0.78 µg/mL (≈ 1.17 µM), the MIC (Staphylococcus Aureus; ATCC6538P, strain ATCC 6538P) was 0.78 µg/mL (≈ 1.17 µM) and the MIC (Staphylococcus Aureus; NCTC10649, strain NCTC 10649) was 0.78 µg/mL (≈ 1.17 µM). It also gave an MIC (Staphylococcus Aureus; strain 45) of 0.78 µg/mL (≈ 1.17 µM), an MIC (Staphylococcus Aureus; strain 45 RAR2) of 1.56 µg/mL (≈ 2.33 µM) and an MIC (Staphylococcus Aureus; strain 642A) of 1.56 µg/mL (≈ 2.33 µM). For the same compound, the MIC (Staphylococcus Aureus; strain A5177) was 0.78 µg/mL (≈ 1.17 µM), the MIC (Staphylococcus Aureus; strain CMX 553) was 1.56 µg/mL (≈ 2.33 µM) and the MIC (Micrococcus Luteus; ATCC4698, strain ATCC 4698) was 0.39 µg/mL (≈ 0.583 µM). It also gave an MIC (Micrococcus Luteus; ATCC9341, strain ATCC 9341) of 0.2 µg/mL (≈ 0.299 µM), an MIC (Pseudomonas Aeruginosa; strain A5007) of 100 µg/mL (≈ 150 µM) and an MIC (Pseudomonas Aeruginosa; strain BMH10) of 100 µg/mL (≈ 150 µM). It also gave an MIC (Pseudomonas Aeruginosa; strain K799/61) of 3.1 µg/mL (≈ 4.63 µM), an MIC (Pseudomonas Aeruginosa; strain K799/WT) of 100 µg/mL (≈ 150 µM) and an MIC (Haemophilus Influenzae; ATCC9795, strain ATCC 9795, read-out: MIC) of 1 µg/mL (≈ 1.5 µM). It also gave an MIC (Haemophilus Influenzae; ATCC10211, strain ATCC 10211) of 2 µg/mL (≈ 2.99 µM), an MIC (Haemophilus Influenzae; ATCC19418, strain ATCC 19418) of 2 µg/mL (≈ 2.99 µM) and an MIC (Haemophilus Influenzae; ATCC43095, strain ATCC 43095) of 2 µg/mL (≈ 2.99 µM). The MIC (Haemophilus Influenzae; strain 503B) was 2 µg/mL (≈ 2.99 µM), the MIC (Haemophilus Influenzae; strain 504, read-out: MIC) was 0.25 µg/mL (≈ 0.374 µM) and the MIC (Haemophilus Influenzae; strain 519A, read-out: MIC) was 1 µg/mL (≈ 1.5 µM). For the same compound, the MIC (Haemophilus Influenzae; strain 566A, read-out: MIC) was 1 µg/mL (≈ 1.5 µM), the MIC (Haemophilus Influenzae; strain 588A) was 2 µg/mL (≈ 2.99 µM) and the MIC (Haemophilus Influenzae; strain 747C) was 2 µg/mL (≈ 2.99 µM). The MIC (Haemophilus Influenzae; strain 751, read-out: MIC) was 8 µg/mL (≈ 12 µM), the MIC (Haemophilus Influenzae; strain 1177, read-out: MIC) was 0.25 µg/mL (≈ 0.374 µM) and the MIC (Haemophilus Influenzae; strain 1435, read-out: MIC) was 1 µg/mL (≈ 1.5 µM). The MIC (Haemophilus Influenzae; strain DILL AMP R) was 2 µg/mL (≈ 2.99 µM), the MIC (Haemophilus Influenzae; strain SOL AMP R) was 2 µg/mL (≈ 2.99 µM) and the MIC (Haemophilus Influenzae; strain SPK AMP R) was 2 µg/mL (≈ 2.99 µM). It also gave an MIC (Enterococcus Faecium) of 0.39 µg/mL (≈ 0.583 µM), an MIC (Escherichia Coli; strain DC-2) of 25 µg/mL (≈ 37.4 µM) and an MIC (Escherichia Coli; strain H560) of 12.5 µg/mL (≈ 18.7 µM). For the same compound, the MIC (Escherichia Coli; strain JUHL) was 50 µg/mL (≈ 74.8 µM), the MIC (Escherichia Coli; strain KNK 437) was 50 µg/mL (≈ 74.8 µM) and the MIC (Escherichia Coli; strain SS) was 0.78 µg/mL (≈ 1.17 µM). The MIC (Pseudomonas Cepacia) was greater than 100 µg/mL.
